For assay [1], the target named is T1, PRMT5 (Homo sapiens, UniProt O14744).
T1 construct: purchased Viva (custom protein)
Put plainly: PRMT5 biochemical IC50 assay with SAM as cofactor. Conditions: PRMT5, SAM as cofactor; read-out: SAM IC50.

For assay [2], the target named is T1, PRMT5. Kind of assay: PRMT5 biochemical IC50 assay with no cofactor. Particulars: PRMT5, no cofactor; read-out: No Cofactor/rel IC50. The source says:
Table 1 indicates IC50 values (μM) against PRMT5 for exemplary compounds in the presence of SAM as cofactor, with no cofactor, and with MTA as cofactor, respectively (columns 4-6). […] Ki values can be calculated from the IC50 values as described in the Examples section. As detailed in the Examples section, for the assay performed in the presence of SAM, IC50=Ki×1.5 (Ki=IC50/1.5).

In assay [3] the test system is HAP1 MTAP-deleted cell line. Put plainly: Viability assay, MTAP-deleted cell line. It counts as cell-based. Particulars: Homo sapiens, read-out: HAP1 MTAP deleted viability. The text has this:
Table 1 additionally indicates IC50 values in a viability assay for the MTAP-deleted cell line (column 10), indicating the effect of treatment with compound on cell survival.

Assay [4] deals with HAP1 MTAP-intact cell line. Kind of assay: SDMA in-cell western assay, HAP1 MTAP-intact. Particulars: Homo sapiens, HAP1, SDMA in-cell western, HAP1 MTAP-intact; read-out: MTAP HAP1 intact IC50. The assay is classed as cell-based. The procedure, abridged: (§1)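 Readout: in-cell western detection of SDMA. Cells: HAP1 expressing endogenous MTAP and an MTAP-null HAP1 counterpart. Output: IC50.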

The subject of assay [5] is HAP1 MTAP-deleted cell line. Kind of assay: SDMA in-cell western assay, HAP1 MTAP-deleted. Particulars: for IC50: Homo sapiens, HAP1, SDMA in-cell western, HAP1 MTAP-deleted; for MTAP intact/deleted ratio: IC50 ratio HAP1 MTAP-intact / HAP1 MTAP-deleted, SDMA in-cell western. The assay is classed as cell-based. The procedure, abridged:
as §1

The target of assay [6] is T1, PRMT5. Put plainly: PRMT5 biochemical IC50 assay with MTA as cofactor. Particulars: PRMT5, MTA as cofactor; read-out: MTA IC50.
Setting [7] is: HAP1, viability IC50, MTAP-deleted cell line.
[8] abbreviates: read-out: HAP 1 MTAP deleted IC50.
Setting [9] is: HAP1, viability assay, HAP1 MTAP-deleted.
The mark [10] stands for this setting: read-out: HAP1 MTAP deleted IC50.

The structures appear in SMILES notation. Some results are limits rather than exact numbers.

Experimental findings from patent publication US11999727B2 (Tango Therapeutics, Inc., priority 2020, dated 2024) are described below.

T1 sequence (O14744 whole entry): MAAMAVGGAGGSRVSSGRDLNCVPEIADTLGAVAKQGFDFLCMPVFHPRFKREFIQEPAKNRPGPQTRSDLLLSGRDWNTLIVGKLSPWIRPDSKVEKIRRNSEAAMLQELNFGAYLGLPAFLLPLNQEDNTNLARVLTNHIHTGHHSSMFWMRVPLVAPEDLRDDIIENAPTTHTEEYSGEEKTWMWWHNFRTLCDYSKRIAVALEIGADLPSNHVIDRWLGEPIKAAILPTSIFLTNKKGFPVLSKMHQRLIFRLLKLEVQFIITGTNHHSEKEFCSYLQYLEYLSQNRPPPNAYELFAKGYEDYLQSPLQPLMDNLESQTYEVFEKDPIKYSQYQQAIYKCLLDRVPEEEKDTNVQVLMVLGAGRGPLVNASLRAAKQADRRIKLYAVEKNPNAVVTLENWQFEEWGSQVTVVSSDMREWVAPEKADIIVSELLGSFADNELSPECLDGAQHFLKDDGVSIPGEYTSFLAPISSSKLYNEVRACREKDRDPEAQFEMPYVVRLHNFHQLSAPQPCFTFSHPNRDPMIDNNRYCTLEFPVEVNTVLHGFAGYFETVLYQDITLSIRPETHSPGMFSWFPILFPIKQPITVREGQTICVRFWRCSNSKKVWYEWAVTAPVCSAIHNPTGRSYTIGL
T1 sequence (Q9BQA1 whole entry partner): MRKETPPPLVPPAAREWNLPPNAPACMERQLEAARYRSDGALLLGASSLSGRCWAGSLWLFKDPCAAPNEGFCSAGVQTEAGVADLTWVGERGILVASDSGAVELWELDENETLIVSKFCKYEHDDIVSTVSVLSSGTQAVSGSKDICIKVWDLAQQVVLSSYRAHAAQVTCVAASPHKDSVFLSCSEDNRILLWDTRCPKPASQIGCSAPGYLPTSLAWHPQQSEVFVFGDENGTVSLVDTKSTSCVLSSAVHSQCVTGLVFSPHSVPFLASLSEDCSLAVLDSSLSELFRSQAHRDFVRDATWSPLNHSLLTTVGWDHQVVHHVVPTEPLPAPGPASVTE

With `Cc1cc(NC(=O)C(=O)N2C[C@H](C)CC[C@H]2c2cccc3[nH]ncc23)cnc1N` (racemic) [Compound 690, rac-N-(6-amino-5-methyl-3-pyridyl)-2-[(2S,5R)-2-(1H-indazol-4-yl)-5-methyl-1-piperidyl]-2-oxo-acetamide], the IC50 in assay [1] was 50 to 500 nM; in assay [2], 50 to 500 nM; in assay [3] (setting [7]), 1000 to 10000 nM; in assay [4], over 1000 nM; in assay [5] (setting [8]), 100 to 1000 nM; in assay [6], under 50 nM. Further, the MTAP intact/deleted ratio entry in assay [5] is recorded as “A (an IC50 ratio greater than or equal to 10 fold)”.

`CNS(=O)(=O)c1cccc([C@@H]2CC[C@@H](C)CN2C(=O)C(=O)Nc2cnc(N)c(C)c2)c1` (racemic) [Compound 691, N-(6-amino-5-methyl-3-pyridyl)-2-[(2S,5R)-5-methyl-2-[3-(methylsulfamoyl)phenyl]-1-piperidyl]-2-oxo-acetamide]: the IC50 in assay [1] is 50 to 500 nM; in assay [2] it was 50 to 500 nM; in assay [3] (setting [7]) it was 1000 to 10000 nM; in assay [4] it was over 1000 nM; in assay [5] (setting [8]) it was 100 to 1000 nM; in assay [6] it was under 50 nM. Also, the MTAP intact/deleted ratio entry in assay [5] is reported as “A (an IC50 ratio greater than or equal to 10 fold)”.

In the case of `Cc1cc(NC(=O)C(=O)N2C[C@H](C)CC[C@H]2C2CC3(CCC3)C2)cnc1N` (racemic) [Compound 692, N-(6-amino-5-methylpyridin-3-yl)-2-(5-methyl-2-(spiro[3.3]heptan-2-yl)piperidin-1-yl)-2-oxoacetamide], the IC50 in assay [1] was over 500 nM; in assay [2] it was over 500 nM; in assay [3] (setting [7]), over 10000 nM; in assay [4], over 1000 nM; in assay [5] (setting [8]) it was over 1000 nM; in assay [6], 50 to 500 nM. Besides, the MTAP intact/deleted ratio entry in assay [5] is recorded as “C (an IC50 ratio of less than 3 fold)”.

In the case of `CCc1cc(NC(=O)C(=O)N2C[C@@H](C)CC[C@@H]2c2ccc(F)cc2)cnc1N` (racemic) [Compound 710, N-(6-amino-5-ethylpyridin-3-yl)-2-(2-(4-fluorophenyl)-5-methylpiperidin-1-yl)-2-oxoacetamide], the IC50 in assay [1] is 50 to 500 nM; in assay [2], under 50 nM; in assay [3] (setting [9]), under 1000 nM; in assay [4], over 1000 nM; in assay [5] (setting [10]) it was under 100 nM; in assay [6], under 50 nM. Further, the MTAP intact/deleted ratio result in assay [5] is reported as “A (an IC50 ratio greater than or equal to 10 fold)”.

With `[H][C@@]1([C@]2([H])C[C@@]3(C[C@H](O)C3)C2)CC[C@@H](C)CN1C(=O)C(=O)Nc1cnc(N)c(C)c1` (mixture of isomers) [Compound 711], the IC50 was over 500 nM in assay [1]; over 500 nM in assay [2]; over 10000 nM in assay [3] (setting [9]); over 1000 nM in assay [4]; over 1000 nM in assay [5] (setting [10]); 50 to 500 nM in assay [6]. In addition, the MTAP intact/deleted ratio entry in assay [5] is given as “B (an IC50 ratio greater than or equal to 3 fold but lower than 10 fold)”.

For the compound `Cc1cc(NC(=O)C(=O)N2C[C@H](C)CC[C@H]2c2cccc3c2CC(=O)N3)cnc1N` (racemic) [Compound 714, N-(6-Amino-5-methyl-3-pyridyl)-2-[(2S,5R)-5-methyl-2-(2-oxoindolin-4-yl)-1-piperidyl]-2-oxo-acetamide], the IC50 was 50 to 500 nM in assay [1]; 50 to 500 nM in assay [2]; 1000 to 10000 nM in assay [3] (setting [9]); over 1000 nM in assay [4]; 100 to 1000 nM in assay [5] (setting [10]); under 50 nM in assay [6]. In addition, the MTAP intact/deleted ratio result in assay [5] is on record as “A (an IC50 ratio greater than or equal to 10 fold)”.

On to `Cc1cc(NC(=O)C(=O)N2C[C@H](C)CC[C@H]2c2ccn(-c3ccn[nH]3)n2)cnc1N` (racemic) [Compound 715, 2-(2-(1′H-[1,3′-bipyrazol]-3-yl)-5-methylpiperidin-1-yl)-N-(6-amino-5-methylpyridin-3-yl)-2-oxoacetamide], for which the IC50 in assay [1] is over 500 nM; in assay [2], 50 to 500 nM; in assay [3] (setting [9]), 1000 to 10000 nM; in assay [4], over 1000 nM; in assay [5] (setting [10]), under 100 nM; in assay [6] it was 50 to 500 nM. For the same compound, the MTAP intact/deleted ratio result in assay [5] was “A (an IC50 ratio greater than or equal to 10 fold)”.

Take `Cc1cc(NC(=O)C(=O)N2C[C@H](C)CC[C@H]2c2ccc3ncsc3c2)cnc1N` (racemic) [Compound 716, N-(6-amino-5-methyl-3-pyridyl)-2-[(2S,5R)-2-(1,3-benzothiazol-6-yl)-5-methyl-1-piperidyl]-2-oxo-acetamide]: the IC50 was 50 to 500 nM in assay [1]; 50 to 500 nM in assay [2]; under 1000 nM in assay [3] (setting [9]); over 1000 nM in assay [4]; under 100 nM in assay [5] (setting [10]); under 50 nM in assay [6]. Also, the MTAP intact/deleted ratio result in assay [5] is given as “A (an IC50 ratio greater than or equal to 10 fold)”.

As to `CC(=O)N1CCC([C@@H]2CC[C@@H](C)CN2C(=O)C(=O)Nc2cnc(N)c(C)c2)CC1` (racemic) [Compound 737, 2-[(2R,5S)-2-(1-acetyl-4-piperidyl)-5-methyl-1-piperidyl]-N-(6-amino-5-methyl-3-pyridyl)-2-oxo-acetamide], the IC50 is over 500 nM in assay [1]; 50 to 500 nM in assay [2]; over 10000 nM in assay [3] (setting [9]); over 1000 nM in assay [4]; over 1000 nM in assay [5] (setting [10]); 50 to 500 nM in assay [6]. In addition, the MTAP intact/deleted ratio result in assay [5] is “B (an IC50 ratio greater than or equal to 3 fold but lower than 10 fold)”.

As to `CCOc1ncc(NC(=O)C(=O)N2C[C@@H](C)CC[C@@H]2c2ccccc2)cc1C(N)=O` (racemic) [Compound 738], the IC50 was 50 to 500 nM in assay [1]; 50 to 500 nM in assay [2]; over 10000 nM in assay [3] (setting [9]); over 1000 nM in assay [4]; over 1000 nM in assay [5] (setting [10]); 50 to 500 nM in assay [6]. The MTAP intact/deleted ratio result in assay [5] is “B (an IC50 ratio greater than or equal to 3 fold but lower than 10 fold)”.

Regarding `Cc1cc(NC(=O)C(=O)N2C[C@H](C)CC[C@H]2c2cc3[nH]ncc3s2)cnc1N` (racemic) [Compound 743, N-(6-amino-5-methylpyridin-3-yl)-2-(5-methyl-2-(1H-thieno[3,2-c]pyrazol-5-yl)piperidin-1-yl)-2-oxoacetamide], the IC50 in assay [1] was 50 to 500 nM; in assay [2], 50 to 500 nM; in assay [3] (setting [9]), under 1000 nM; in assay [4], 100 to 1000 nM; in assay [5] (setting [10]) it was under 100 nM; in assay [6] it was 50 to 500 nM. Further, the MTAP intact/deleted ratio result in assay [5] is given as “A (an IC50 ratio greater than or equal to 10 fold)”.

For the compound `Cc1cc(NC(=O)C(=O)N2C[C@H](C)CC[C@H]2C2CCCNC2)cnc1N` (mixture of isomers) [Compound 744, N-(6-amino-5-methyl-3-pyridyl)-2-[(2R,5S)-5-methyl-2-(3-piperidyl)-1-piperidyl]-2-oxo-acetamide], the IC50 is over 500 nM in assay [1]; over 500 nM in assay [2]; over 10000 nM in assay [3] (setting [9]); over 1000 nM in assay [4]; over 1000 nM in assay [5] (setting [10]); 50 to 500 nM in assay [6]. Besides, the MTAP intact/deleted ratio entry in assay [5] is “C (an IC50 ratio of less than 3 fold)”.

As for `CC(=O)N[C@H]1CCN(C(=O)C(=O)Nc2cncc(C(N)=O)c2)[C@@H](c2ccccc2)C1` (racemic) [Compound 745, 5-[[2-[(2R,4S)-4-acetamido-2-phenyl-1-piperidyl]-2-oxo-acetyl]amino]pyridine-3-carboxamide], the IC50 in assay [1] is over 500 nM; in assay [2], over 500 nM; in assay [3] (setting [9]), over 10000 nM; in assay [4], over 1000 nM; in assay [5] (setting [10]), over 1000 nM; in assay [6], 50 to 500 nM. For the same compound, the MTAP intact/deleted ratio result in assay [5] is on record as “C (an IC50 ratio of less than 3 fold)”.

Regarding `CCc1ncc(NC(=O)C(=O)N2C[C@@H](C)CC[C@@H]2c2ccccc2)cc1C(N)=O` (racemic) [Compound 747, 2-Ethyl-5-[[2-[(2S,5R)-5-methyl-2-phenyl-1-piperidyl]-2-oxo-acetyl]amino]pyridine-3-carboxamide], the IC50 in assay [1] is 50 to 500 nM; in assay [2] it was 50 to 500 nM; in assay [3] (setting [9]), over 10000 nM; in assay [4] it was over 1000 nM; in assay [5] (setting [10]), over 1000 nM; in assay [6], 50 to 500 nM. Moreover, the MTAP intact/deleted ratio entry in assay [5] is “B (an IC50 ratio greater than or equal to 3 fold but lower than 10 fold)”.

In the case of `CC(=O)N1CCCC([C@@H]2CC[C@@H](C)CN2C(=O)C(=O)Nc2cnc(N)c(C)c2)C1` (mixture of isomers) [Compound 757, rac-2-[(2R,5S)-2-(1-acetyl-3-piperidyl)-5-methyl-1-piperidyl]-N-(6-amino-5-methyl-3-pyridyl)-2-oxo-acetamide], the IC50 is 50 to 500 nM in assay [1]; 50 to 500 nM in assay [2]; over 10000 nM in assay [3] (setting [9]); over 1000 nM in assay [4]; 100 to 1000 nM in assay [5] (setting [10]); 50 to 500 nM in assay [6]. Moreover, the MTAP intact/deleted ratio entry in assay [5] is recorded as “B (an IC50 ratio greater than or equal to 3 fold but lower than 10 fold)”.
